{
  "source": "the CombiSolv-Exp solvation set (Vermeire and Green 2021)",
  "assay": "solvent given as SMILES",
  "data": [
    {"molecule": "CCCCCC#N", "values": [
      {"measurement": "solvation free energy, 298 K", "setting": "in CCCCCCCCCCCCCCCC", "result": -19.6, "unit": "kJ/mol"},
      {"measurement": "solvation free energy, 298 K", "setting": "in CCCCCCCCO", "result": -23.2, "unit": "kJ/mol"},
      {"measurement": "solvation free energy, 298 K", "setting": "in O", "result": -13.7, "unit": "kJ/mol"},
      {"measurement": "solvation free energy, 298 K", "setting": "in [2H]O[2H]", "result": -13.6, "unit": "kJ/mol"}
    ]},
    {"molecule": "Cc1nc(N(C)C)nc(OC(=O)N(C)C)c1C", "values": [
      {"measurement": "solvation free energy, 298 K", "setting": "in O", "result": -39.4, "unit": "kJ/mol"}
    ]},
    {"molecule": "O=Nc1ccc2ccccc2c1O", "values": [
      {"measurement": "solvation free energy, 298 K", "setting": "in O", "result": -36.8, "unit": "kJ/mol"}
    ]},
    {"molecule": "c1ccc2c(c1)OCCOCCOCCOCCOCCO2", "values": [
      {"measurement": "solvation free energy, 298 K", "setting": "in O", "result": -74.8, "unit": "kJ/mol"}
    ]},
    {"molecule": "CCCCOCC(C)O", "note": "(stereo unspecified)", "values": [
      {"measurement": "solvation free energy, 298 K", "setting": "in O", "result": -24, "unit": "kJ/mol"}
    ]},
    {"molecule": "O=[N+]([O-])c1ccccc1", "values": [
      {"measurement": "solvation free energy, 298 K", "setting": "in CCCCCC", "result": -25.5, "unit": "kJ/mol"},
      {"measurement": "solvation free energy, 298 K", "setting": "in CCCCCCC", "result": -25.7, "unit": "kJ/mol"},
      {"measurement": "solvation free energy, 298 K", "setting": "in CCCCCCCCCCCCCCCC", "result": -25.6, "unit": "kJ/mol"},
      {"measurement": "solvation free energy, 298 K", "setting": "in O", "result": -17.7, "unit": "kJ/mol"}
    ]},
    {"molecule": "O=[N+]([O-])c1ccc(CCl)cc1", "values": [
      {"measurement": "solvation free energy, 298 K", "setting": "in Brc1ccccc1", "result": -23.6, "unit": "kJ/mol"},
      {"measurement": "solvation free energy, 298 K", "setting": "in CC(C)=O", "result": -41.9, "unit": "kJ/mol"},
      {"measurement": "solvation free energy, 298 K", "setting": "in CC(C)CCO", "result": -34.9, "unit": "kJ/mol"},
      {"measurement": "solvation free energy, 298 K", "setting": "in CC(C)CO", "result": -34.5, "unit": "kJ/mol"},
      {"measurement": "solvation free energy, 298 K", "setting": "in CCC(C)O", "result": -34.6, "unit": "kJ/mol"},
      {"measurement": "solvation free energy, 298 K", "setting": "in CCCC(C)O", "result": -34.5, "unit": "kJ/mol"},
      {"measurement": "solvation free energy, 298 K", "setting": "in CCCCCO", "result": -35.1, "unit": "kJ/mol"},
      {"measurement": "solvation free energy, 298 K", "setting": "in CCCCO", "result": -35.5, "unit": "kJ/mol"},
      {"measurement": "solvation free energy, 298 K", "setting": "in CCCCOC(C)=O", "result": -40.5, "unit": "kJ/mol"},
      {"measurement": "solvation free energy, 298 K", "setting": "in CCCO", "result": -35.7, "unit": "kJ/mol"},
      {"measurement": "solvation free energy, 298 K", "setting": "in CCOCC", "result": -38.7, "unit": "kJ/mol"},
      {"measurement": "solvation free energy, 298 K", "setting": "in O", "result": -21.5, "unit": "kJ/mol"}
    ]},
    {"molecule": "COc1cc(C=O)cc(-c2cc(C=O)cc(OC)c2O)c1O", "values": [
      {"measurement": "solvation free energy, 298 K", "setting": "in CCC(C)=O", "result": -91.5, "unit": "kJ/mol"},
      {"measurement": "solvation free energy, 298 K", "setting": "in Cc1ccccc1", "result": -82.1, "unit": "kJ/mol"},
      {"measurement": "solvation free energy, 298 K", "setting": "in ClC=CCl", "result": -86.1, "unit": "kJ/mol"}
    ]},
    {"molecule": "C1CCCCCC1", "values": [
      {"measurement": "solvation free energy, 298 K", "setting": "in CC(C)O", "result": -17.7, "unit": "kJ/mol"},
      {"measurement": "solvation free energy, 298 K", "setting": "in CCCCCCCCCCCCCCCC", "result": -20.2, "unit": "kJ/mol"},
      {"measurement": "solvation free energy, 298 K", "setting": "in CCCO", "result": -17.9, "unit": "kJ/mol"},
      {"measurement": "solvation free energy, 298 K", "setting": "in CN1CCCC1=O", "result": -16.7, "unit": "kJ/mol"},
      {"measurement": "solvation free energy, 298 K", "setting": "in CN(C)C=O", "result": -15.9, "unit": "kJ/mol"},
      {"measurement": "solvation free energy, 298 K", "setting": "in CS(C)=O", "result": -13, "unit": "kJ/mol"},
      {"measurement": "solvation free energy, 298 K", "setting": "in N#CCCCCC#N", "result": -14, "unit": "kJ/mol"},
      {"measurement": "solvation free energy, 298 K", "setting": "in NCCO", "result": -10.1, "unit": "kJ/mol"},
      {"measurement": "solvation free energy, 298 K", "setting": "in O", "result": 3.31, "unit": "kJ/mol"},
      {"measurement": "solvation free energy, 298 K", "setting": "in O=Cc1ccco1", "result": -16.1, "unit": "kJ/mol"},
      {"measurement": "solvation free energy, 298 K", "setting": "in OCc1ccco1", "result": -15.6, "unit": "kJ/mol"}
    ]},
    {"molecule": "CN(C)N=O", "values": [
      {"measurement": "solvation free energy, 298 K", "setting": "in CC(C)CC(C)(C)C", "result": -16, "unit": "kJ/mol"},
      {"measurement": "solvation free energy, 298 K", "setting": "in O", "result": -25.2, "unit": "kJ/mol"}
    ]},
    {"molecule": "Clc1cc(-c2cc(Cl)c(Cl)c(Cl)c2Cl)cc(Cl)c1Cl", "values": [
      {"measurement": "solvation free energy, 298 K", "setting": "in O", "result": -13.3, "unit": "kJ/mol"}
    ]},
    {"molecule": "OC1CCCCCC1", "values": [
      {"measurement": "solvation free energy, 298 K", "setting": "in O", "result": -22.9, "unit": "kJ/mol"}
    ]},
    {"molecule": "CCc1ccccn1", "values": [
      {"measurement": "solvation free energy, 298 K", "setting": "in O", "result": -18.1, "unit": "kJ/mol"}
    ]},
    {"molecule": "CC1=CCC23CC1C(C)(C)C2CCC3C", "note": "(stereo unspecified)", "values": [
      {"measurement": "solvation free energy, 298 K", "setting": "in O", "result": 3.26, "unit": "kJ/mol"}
    ]},
    {"molecule": "ClCBr", "values": [
      {"measurement": "solvation free energy, 298 K", "setting": "in C1CCCCC1", "result": -15.4, "unit": "kJ/mol"},
      {"measurement": "solvation free energy, 298 K", "setting": "in ClC(Cl)(Cl)Cl", "result": -16.4, "unit": "kJ/mol"},
      {"measurement": "solvation free energy, 298 K", "setting": "in c1ccccc1", "result": -18.1, "unit": "kJ/mol"}
    ]},
    {"molecule": "COCCO", "values": [
      {"measurement": "solvation free energy, 298 K", "setting": "in C1CCOC1", "result": -22.8, "unit": "kJ/mol"},
      {"measurement": "solvation free energy, 298 K", "setting": "in COC(C)=O", "result": -22.8, "unit": "kJ/mol"},
      {"measurement": "solvation free energy, 298 K", "setting": "in O", "result": -28.3, "unit": "kJ/mol"}
    ]},
    {"molecule": "FCCl", "values": [
      {"measurement": "solvation free energy, 298 K", "setting": "in O", "result": -3.22, "unit": "kJ/mol"}
    ]}
  ]
}
